Source: patent publication US4959493A, “Carboxycyclopropylglycine and process for producing the same” (Suntory Limited, priority 1987, dated 1990)
Read-outs that look alike come from different tables or passages of the source.

Legend:
[1] = test system: motoneurons in the isolated spinal cord of a neonatal rat; assay: Depolarization of motoneurons in the isolated spinal cord of a neonatal rat (extracellular records, Evans and Watkins method); format: cell-based; conditions: for minimal effective concentration: read-out: MEC (minimum effective concentration for causing depolarizations of motoneurons); for Specific activity: relative to L-glutamic acid = 1; for Effect of Mg++ ions on depolarizing activity: in the presence of Mg++ ions; for Agonist type (glutamate receptor subtype): isolated new-born rat spinal cord
Experimental: In accordance with the method described in Evans, R. H. and Watkins, J. C., European J. Pharmac., 50 123-129, 1978, the minimum effective concentrations (MEC) of L-glutamic acid and compounds (1), (1a), (1b) and (1c) of the present invention for causing depolarizations of motoneurons in the isolated spinal cord of a neonatal rat under perfusion with an artificial physiological solution ([…] fluid) were measured as extracellular records in the […] root.

[2] = isolated from Aesculus parviflora and Blighia sapida; Fowden et al. 1969; cited from earlier work
[3] = isolated neonatal rat spinal cord perfused with artificial physiological solution, (-) = Ineffective

Compound | minimal effective concentration ([1]; Rattus norvegicus) [µM] | Specific activity ([1]; (-) = Ineffective) | minimal effective concentration [1, 3] [µM] | Undesired effects [2] | Effect of Mg++ ions on depolarizing activity [1] | Agonist type (glutamate receptor subtype) [1] | Potency relative to NMDA ([1]; compared with NMDA activity of 2×10^-5 molar) [times]
N[C@@H](CCC(=O)O)C(=O)O [L-Glu, L-glutamic acid, reference compound] | 100 | 1 | – | – | – | – | –
N[C@H](C(=O)O)[C@H]1C[C@H]1C(=O)O [(1c), (2S,3S,4R)-carboxycyclopropylglycine] | – | 0.5 | 500 | hypoglycemia and vomiting | – | – | –
N[C@H](C(=O)O)[C@H]1C[C@@H]1C(=O)O [(1a), (2S,3S,4S)-carboxycyclopropylglycine] | – | 5 | 50 | hypoglycemia and vomiting | Unaffected | agonist of the kainate type | –
N[C@H](C(=O)O)[C@@H]1C[C@@H]1C(=O)O [Compound (1), (2S,3R,4S)-carboxycyclopropylglycine] | – | 100 | 1 | – | activity disappeared | agonist of the NMDA type | 5
